# Assay results: patent US20160130257A1, “Macrocyclic proteasome inhibitors” (BROWN UNIVERSITY, priority 2013, published 2016)
# Where two headings read alike, the source gives them in different places.
# Columns and labels:
# [1] = tested on: 60 different human tumor cell lines; assay type: cell-based
# Description: The In Vitro Cell Line Screening Project (IVCLSP) is a dedicated service providing direct support to the DTP anticancer drug discovery program. The screen utilizes 60 different human tumor cell lines, representing leukemia, melanoma and cancers of the lung, colon, brain, ovary, breast, prostate, and kidney. IVCLSP is unique because the complexity of a 60 cell line dose response produced by a given compound results in a biological response pattern, which can be utilized in pattern recognition algorithms. Using the pattern recognition algorithms, it is possible to assign a putative mechanism of action to a test compound, or to determine that the response pattern is unique and not similar to that of any of the standard prototype compounds included in the NCI database. The methodology of the in vitro cancer screen is available from the NIH.
# [2] = biological target: Mycobacterium tuberculosis 20S peptidase (mtb 20S) (Mycobacterium tuberculosis, UniProt P9WHT9)
# [3] = tested on: non-heme chloroperoxidase SCO0456 gene transcription; test: Peroxidase gene (SCO0456) transcription assay of proteasome inhibition in S. coelicolor; assay type: cell-based, Streptomyces coelicolor; details: for transcription of the proteasome-dependent peroxidase gene: S. coelicolor wild-type, RT-PCR / reporter
# [4] = biological target: mycobacterial proteasome (Mycobacterium tuberculosis, UniProt P9WHT9); details: cited from earlier work
# Chain of mycobacterial proteasome (P9WHT9 58-291): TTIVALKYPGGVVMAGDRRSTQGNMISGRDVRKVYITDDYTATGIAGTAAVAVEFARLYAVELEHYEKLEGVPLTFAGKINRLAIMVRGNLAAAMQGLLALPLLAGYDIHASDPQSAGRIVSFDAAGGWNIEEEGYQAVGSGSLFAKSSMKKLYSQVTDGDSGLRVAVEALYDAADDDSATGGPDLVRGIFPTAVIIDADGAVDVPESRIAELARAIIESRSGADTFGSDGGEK
# Chain of mycobacterial proteasome (P9WHU1 whole entry partner): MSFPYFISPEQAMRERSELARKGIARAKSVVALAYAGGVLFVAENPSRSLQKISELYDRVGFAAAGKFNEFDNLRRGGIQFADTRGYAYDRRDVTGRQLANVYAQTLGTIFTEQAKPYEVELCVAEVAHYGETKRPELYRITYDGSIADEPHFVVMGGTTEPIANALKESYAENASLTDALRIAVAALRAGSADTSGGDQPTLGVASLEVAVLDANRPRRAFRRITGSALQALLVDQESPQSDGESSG
# Chain of Mycobacterium tuberculosis 20S peptidase (mtb 20S) (P9WHT9 58-291): as the sequence (P9WHT9 58-291) above
# Chain of Mycobacterium tuberculosis 20S peptidase (mtb 20S) (P9WHU1 whole entry partner): as the sequence (P9WHU1 whole entry partner) above
Compound,IC50 [2] [µM],"selective inhibition of M. tuberculosis proteasome compared to human proteasome (in words, from ratio of IC50 values) [2]",selectivity for the mycobacterial proteasome compared to the human enzyme [2] [fold],selectivity of M. tuberculosis proteasome inhibition compared to Syringolin B [2],transcription of the proteasome-dependent peroxidase gene [3],inhibition of proteasomes (in words) [4],further results
COC(=O)C(NC(=O)NCC(=O)NC1CCCCNC(=O)C=CC(Cc2c[nH]c3ccccc23)NC1=O)C(C)C (stereo not drawn) [Compound P],0.000114,selectively inhibits,45.6,"more than 6,500 times",induced transcription of the peroxidase reporter gene,,toxicity to human cells [1]: not toxic to human cells; killing of cancer cells ([1]; 60 cancer cell lines): does not kill cancer cells; inhibition of cancer cell proteasomes ([1]; inferred from 60 cell line screen): does not inhibit cancer cell proteasomes; selectivity for M. tuberculosis proteasome than human proteasome [2]: 46 times
COC(=O)C(NC(=O)N1CCCC1C(=O)NC1CCCCNC(=O)C=CC(Cc2c[nH]c3ccccc23)NC1=O)C(C)C (stereo not drawn) [Compound O],2.67,selectively inhibits,13.4,"more than 1,900 times",,,
"CC(C)C[C@H](NC(=O)[C@H](Cc1ccccc1)NC(=O)c1cnccn1)B(O)O [bortezomib, Bortezomib]",,,,,significantly up-regulated,inhibit the mycobacterial proteasomes,inhibition of proteasomes (in words) ([4]; listed as Bortezomib): inhibits both bacterial and human proteasomes
CCCCCCCCC[C@@H](O)CC(=O)N[C@@H](CC(N)=O)C(=O)N[C@@H](CCC(N)=O)C(=O)N[C@H](C=O)CC(C)C [Fellutamide B],,,,,,inhibit the mycobacterial proteasomes,
CC(C)C1/C=C\C(=O)NCCCCC(NC(=O)C(NC(=O)NC(C(=O)O)C(C)C)C(C)C)C(=O)N1 (stereo not drawn) [Syringolin B],,,,,,,"SCO0456 expression (gel electrophoresis of RNA samples) ([3]; wild-type S. coelicolor, 150 μg/ml, 5 hours, 30° C.): up regulated"
